The values below come from the OligoGym collection.

HELM strings list units from the 5' end as sugar, base in round brackets, then linkage (d deoxyribose, r ribose, m 2'-O-methyl, p phosphodiester). Strings are as the collection lists them, not checked against the first reports. ss, as = sense and antisense strand; [lna] = locked nucleic acid (LNA); [hna] = hexitol nucleic acid; [fl2r] = 2'-fluoro
Note: test system not given here.

For the data set the following is noted: siRNA.
For “RNA1{r(C)p.r(G)p.r(G)p.r(A)p.r(U)p.r(C)p.m(U)p.m(A)p.m(C)p.r(A)p.r(C)p.r(C)p.r(U)p.r(U)p.m(C)p.r(A)p.r(A)p.r(G)p.r(A)p.r(T)p.r(T)}|RNA2{r(U)p.r(C)p.r(U)p.m(U)p.r(G)p.r(A)p.r(A)p.r(G)p.r(G)p.m(U)p.r(G)p.m(U)p.r(A)p.r(G)p.r(A)p.r(U)p.r(C)p.r(C)p.r(G)p.r(T)p.r(T)}$$$RNA1{StrandType:ss}|RNA2{StrandType:as}$”, the target mRNA knockdown came out at 40%.
For “RNA1{r(A)p.r(C)p.r(C)p.r(U)p.m(U)p.r(A)p.r(A)p.r(G)p.r(G)p.r(A)p.r(C)p.r(C)p.r(A)p.r(C)p.r(C)p.r(G)p.r(G)p.r(A)p.r(U)p.r(T)p.r(T)}|RNA2{r(A)p.r(U)p.r(C)p.r(C)p.r(G)p.r(G)p.r(U)p.r(G)p.r(G)p.r(U)p.r(C)p.r(C)p.r(U)p.m(U)p.r(A)p.r(A)p.r(G)p.r(G)p.r(U)p.r(T)p.r(T)}$$$RNA1{StrandType:ss}|RNA2{StrandType:as}$”, the target mRNA knockdown was found to be 74%.
The figure for “RNA1{r(A)p.r(A)p.r(A)p.r(C)p.r(C)p.r(U)p.m(C)p.r(A)p.r(G)p.r(C)p.r(C)p.r(C)p.m(U)p.r(A)p.r(A)p.r(C)p.r(G)p.r(G)p.r(U)p.r(T)p.r(T)}|RNA2{r(A)p.r(C)p.r(C)p.r(G)p.r(U)p.m(U)p.r(A)p.r(G)p.r(G)p.r(G)p.r(C)p.m(U)p.r(G)p.r(A)p.r(G)p.r(G)p.r(U)p.r(U)p.r(U)p.r(T)p.r(T)}$$$RNA1{StrandType:ss}|RNA2{StrandType:as}$” is 70%; for “RNA1{m(C)p.r(G)p.m(C)p.r(C)p.m(C)p.r(C)p.m(C)p.r(C)p.m(U)p.r(C)p.m(A)p.r(A)p.m(G)p.r(C)p.m(U)p.r(A)p.m(C)p.r(C)p.m(G)p.r(T)p.r(T)}|RNA2{r(C)p.r(G)p.r(G)p.r(U)p.r(A)p.r(G)p.r(C)p.r(U)p.r(U)p.r(G)p.r(A)p.r(G)p.r(G)p.r(G)p.r(G)p.r(G)p.r(G)p.r(C)p.r(G)p.r(T)p.r(T)}$$$RNA1{StrandType:ss}|RNA2{StrandType:as}$” it is 44%; for “RNA1{r(A)p.r(G)p.r(U)p.m(U)p.r(A)p.r(A)p.r(C)p.r(C)p.r(C)p.r(G)p.r(G)p.r(G)p.r(A)p.r(C)p.r(U)p.m(U)p.r(G)p.r(G)p.r(A)p.r(T)p.r(T)}|RNA2{r(U)p.r(C)p.m(C)p.r(A)p.r(A)p.r(G)p.r(U)p.r(C)p.r(C)p.r(C)p.r(G)p.r(G)p.r(G)p.r(U)p.m(U)p.r(A)p.r(A)p.r(C)p.r(U)p.r(T)p.r(T)}$$$RNA1{StrandType:ss}|RNA2{StrandType:as}$” it is 90%.
The figure for “RNA1{r(A)p.r(A)p.m(C)p.r(U)p.m(C)p.r(U)p.r(A)p.m(C)p.r(U)p.r(G)p.r(U)p.r(G)p.r(G)p.r(A)p.r(G)p.r(U)p.m(C)p.r(G)p.r(G)p.r(T)p.r(T)}|RNA2{m(C)p.m(C)p.r(G)p.r(A)p.m(C)p.r(U)p.m(C)p.m(C)p.r(A)p.m(C)p.r(A)p.r(G)p.r(U)p.r(A)p.r(G)p.r(A)p.r(G)p.r(U)p.r(U)p.r(T)p.r(T)}$$$RNA1{StrandType:ss}|RNA2{StrandType:as}$” is 57%.
The figure for “RNA1{m(A)p.r(A)p.m(C)p.r(U)p.m(U)p.r(C)p.m(U)p.r(G)p.m(G)p.r(G)p.m(A)p.r(G)p.m(C)p.r(C)p.m(U)p.r(C)p.m(C)p.r(A)p.m(A)p.r(T)p.r(T)}|RNA2{r(U)p.r(U)p.r(G)p.r(G)p.m(A)p.r(G)p.r(G)p.r(C)p.r(U)p.r(C)p.r(C)p.r(C)p.m(A)p.r(G)p.m(A)p.m(A)p.r(G)p.r(U)p.r(U)p.r(T)p.r(T)}$$$RNA1{StrandType:ss}|RNA2{StrandType:as}$” is 42%; for “RNA1{m(U)p.r(A)p.r(C)p.r(C)p.r(G)p.r(A)p.r(G)p.r(A)p.r(A)p.m(U)p.r(G)p.r(A)p.r(G)p.r(C)p.r(C)p.m(U)p.r(G)p.r(A)p.r(U)p.r(T)p.r(T)}|RNA2{r(A)p.r(U)p.m(C)p.r(A)p.r(G)p.r(G)p.r(C)p.r(U)p.m(C)p.r(A)p.r(U)p.r(U)p.r(C)p.r(U)p.r(C)p.r(G)p.r(G)p.m(U)p.r(A)p.r(T)p.r(T)}$$$RNA1{StrandType:ss}|RNA2{StrandType:as}$” it is 54%.
Substance “RNA1{r(G)p.r(A)p.r(C)p.r(G)p.r(U)p.r(A)p.r(A)p.r(A)p.r(C)p.r(G)p.r(G)p.r(C)p.r(C)p.r(A)p.r(C)p.r(A)p.r(A)p.r(G)p.r(U)p.r(U)p.r(T)}|RNA2{r(A)p.r(C)p.r(U)p.r(U)p.r(G)p.r(U)p.r(G)p.[hna](G)p.r(C)p.r(C)p.r(G)p.r(U)p.r(U)p.[hna](U)p.r(A)p.r(C)p.r(G)p.[hna](U)p.[hna](C)p.[hna](G)p.r(T)}$$$RNA1{StrandType:ss}|RNA2{StrandType:as}$” gave a target mRNA knockdown of 87%.
The figure for “RNA1{r(U)p.m(U)p.r(A)p.m(C)p.r(A)p.r(A)p.r(A)p.m(G)p.m(G)p.r(A)p.r(U)p.r(C)p.r(U)p.r(C)p.r(C)p.r(U)p.r(C)p.r(C)p.r(C)p.r(T)p.r(T)}|RNA2{r(G)p.r(G)p.r(G)p.r(A)p.r(G)p.r(G)p.r(A)p.r(G)p.r(A)p.r(U)p.r(C)p.r(C)p.r(U)p.r(U)p.m(U)p.r(G)p.m(U)p.r(A)p.r(A)p.r(T)p.r(T)}$$$RNA1{StrandType:ss}|RNA2{StrandType:as}$” is 72%; for “RNA1{[fl2r](G)p.m(A)p.[fl2r](C)p.m(G)p.[fl2r](U)p.m(A)p.[fl2r](A)p.m(A)p.[fl2r](C)p.m(G)p.[fl2r](G)p.m(C)p.[fl2r](C)p.m(A)p.[fl2r](C)p.m(A)p.[fl2r](A)p.m(G)p.[fl2r](U)p.m(U)p.[fl2r](C)}|RNA2{r(A)p.r(C)p.[lna](T)p.r(U)p.r(G)p.[lna](T)p.r(G)p.r(G)p.r(C)p.r(C)p.r(G)p.r(U)p.r(U)p.[lna](T)p.r(A)p.r(C)p.r(G)p.[lna](T)p.r(C)p.[lna](G)p.[lna](C)}$$$RNA1{StrandType:ss}|RNA2{StrandType:as}$” it is 1.5%.
For “RNA1{r(G)p.[hna](A)p.r(C)p.r(G)p.r(U)p.r(A)p.r(A)p.[hna](A)p.r(C)p.r(G)p.r(G)p.r(C)p.r(C)p.[hna](A)p.r(C)p.r(A)p.[hna](A)p.r(G)p.r(U)p.r(U)p.r(C)}|RNA2{r(A)p.r(C)p.r(U)p.r(U)p.r(G)p.r(U)p.r(G)p.r(G)p.r(C)p.r(C)p.r(G)p.r(U)p.r(U)p.r(U)p.r(A)p.r(C)p.r(G)p.r(U)p.[lna](C)p.[lna](G)p.r(C)}$$$RNA1{StrandType:ss}|RNA2{StrandType:as}$” the value was 79.1%; for “RNA1{r(G)p.r(C)p.r(U)p.r(G)p.r(A)p.r(G)p.r(G)p.r(A)p.r(A)p.r(A)p.r(G)p.r(G)p.r(G)p.r(A)p.r(C)p.r(A)p.r(U)p.r(C)p.r(U)p.r(T)p.r(T)}|RNA2{r(A)p.r(G)p.m(A)p.m(U)p.r(G)p.r(U)p.r(C)p.r(C)p.r(C)p.r(U)p.r(U)p.r(U)p.r(C)p.r(C)p.r(U)p.r(C)p.r(A)p.r(G)p.r(C)p.r(T)p.r(T)}$$$RNA1{StrandType:ss}|RNA2{StrandType:as}$”, 78%.
For “RNA1{r(G)p.r(A)p.r(A)p.r(G)p.r(A)p.r(G)p.r(U)p.m(U)p.r(A)p.r(A)p.r(C)p.r(C)p.r(C)p.r(G)p.r(G)p.r(G)p.r(A)p.r(C)p.r(U)p.r(T)p.r(T)}|RNA2{r(A)p.r(G)p.r(U)p.r(C)p.r(C)p.r(C)p.r(G)p.r(G)p.r(G)p.r(U)p.m(U)p.r(A)p.r(A)p.r(C)p.r(U)p.r(C)p.r(U)p.r(U)p.r(C)p.r(T)p.r(T)}$$$RNA1{StrandType:ss}|RNA2{StrandType:as}$” the value was 51%; for “RNA1{r(G)p.r(C)p.[fl2r](U)p.r(A)p.r(C)p.r(C)p.r(G)p.[fl2r](C)p.r(A)p.r(A)p.r(C)p.[fl2r](C)p.r(A)p.r(C)p.r(G)p.r(A)p.r(G)p.r(C)p.r(U)p.r(T)p.r(T)}|RNA2{r(A)p.r(G)p.r(C)p.r(U)p.r(C)p.r(G)p.[fl2r](U)p.r(G)p.r(G)p.r(U)p.[fl2r](U)p.r(G)p.r(C)p.r(G)p.r(G)p.[fl2r](U)p.r(A)p.r(G)p.r(C)p.r(T)p.r(T)}$$$RNA1{StrandType:ss}|RNA2{StrandType:as}$”, 42%.
Consider “RNA1{[fl2r](C)p.r(G)p.[fl2r](A)p.r(C)p.[fl2r](G)p.r(A)p.[fl2r](U)p.r(U)p.[fl2r](C)p.r(U)p.[fl2r](U)p.r(C)p.[fl2r](U)p.r(A)p.[fl2r](C)p.r(U)p.[fl2r](C)p.r(A)p.[fl2r](A)p.r(T)p.r(T)}|RNA2{r(U)p.r(U)p.r(G)p.r(A)p.r(G)p.r(U)p.r(A)p.r(G)p.r(A)p.r(A)p.r(G)p.r(A)p.r(A)p.r(U)p.r(C)p.r(G)p.r(U)p.r(C)p.r(G)p.r(T)p.r(T)}$$$RNA1{StrandType:ss}|RNA2{StrandType:as}$”, for which the target mRNA knockdown came out at 56%.
The figure for “RNA1{r(A)p.r(G)p.r(U)p.r(C)p.r(C)p.r(C)p.m(U)p.r(G)p.r(G)p.r(A)p.r(G)p.r(C)p.r(C)p.r(U)p.m(U)p.r(A)p.r(A)p.r(A)p.r(C)p.r(T)p.r(T)}|RNA2{r(G)p.r(U)p.r(U)p.m(U)p.r(A)p.r(A)p.r(G)p.r(G)p.r(C)p.r(U)p.r(C)p.m(C)p.r(A)p.r(G)p.r(G)p.r(G)p.r(A)p.r(C)p.r(U)p.r(T)p.r(T)}$$$RNA1{StrandType:ss}|RNA2{StrandType:as}$” is 65%; for “RNA1{m(A)p.r(G)p.m(C)p.r(G)p.m(G)p.r(G)p.m(G)p.r(U)p.m(A)p.r(U)p.m(G)p.r(A)p.m(A)p.r(G)p.m(A)p.r(G)p.m(C)p.r(U)p.m(U)p.r(T)p.r(T)}|RNA2{r(A)p.r(A)p.r(G)p.r(C)p.r(U)p.r(C)p.r(U)p.r(U)p.r(C)p.r(A)p.r(U)p.r(A)p.r(C)p.r(C)p.r(C)p.r(C)p.r(G)p.r(C)p.r(U)p.r(T)p.r(T)}$$$RNA1{StrandType:ss}|RNA2{StrandType:as}$” it is 75%; for “RNA1{r(G)p.m(C)p.r(A)p.r(G)p.r(C)p.r(A)p.r(C)p.r(G)p.r(A)p.r(C)p.r(U)p.r(U)p.r(C)p.r(U)p.r(U)p.r(C)p.r(A)p.r(A)p.r(G)p.r(U)p.r(U)}|RNA2{r(C)p.m(U)p.r(U)p.r(G)p.r(A)p.r(A)p.r(G)p.r(A)p.r(A)p.r(G)p.r(U)p.r(C)p.r(G)p.r(U)p.r(G)p.r(C)p.r(U)p.r(G)p.r(C)p.r(U)p.r(U)}$$$RNA1{StrandType:ss}|RNA2{StrandType:as}$” it is 62.7%.
